Laboratory results published in patent publication US20060106075A1, “Benzothiazole derivatives having beta-2-adrenoreceptor agonist activity” (priority 2002, published 2006).
Read-outs that look alike come from different tables or passages of the source.

Biological target: β2-adrenoceptor (Homo sapiens, UniProt P07550)
Assay: β2-adrenoceptor binding potency, classical filtration binding assay
Source text: Accordingly the invention also provides a compound of formula I in free or salt form for use as a pharmaceutical.

Sequence of β2-adrenoceptor (P07550 whole entry, species assumed): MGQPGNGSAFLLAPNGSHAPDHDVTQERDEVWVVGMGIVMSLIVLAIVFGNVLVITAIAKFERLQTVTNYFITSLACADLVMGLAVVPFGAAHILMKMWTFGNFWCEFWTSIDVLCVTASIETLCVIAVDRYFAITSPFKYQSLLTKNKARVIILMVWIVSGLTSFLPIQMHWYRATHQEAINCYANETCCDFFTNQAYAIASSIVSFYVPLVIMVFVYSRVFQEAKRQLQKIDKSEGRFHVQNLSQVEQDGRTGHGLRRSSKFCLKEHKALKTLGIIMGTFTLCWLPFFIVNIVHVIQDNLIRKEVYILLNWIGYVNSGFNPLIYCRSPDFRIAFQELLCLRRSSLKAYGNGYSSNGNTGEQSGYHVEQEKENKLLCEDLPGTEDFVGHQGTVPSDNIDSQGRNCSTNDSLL

SMILES | Ki (read-out: Ki (β2)) | Ki
O=c1[nH]c2c(O)ccc(C(O)CNCCc3ccc(OCCCCc4ccccc4)cc3)c2s1 (centres unmarked) [Example 1, 4-hydroxy7-(1-hydroxy-2-{2-[4-(4-phenyl-butoxy)-phenyl]-ethylamino}-ethyl)-3H-benzothiazol-2-one] | 300 pM | –
COc1ccc(C[C@@H](C)NCC(O)c2ccc(O)c3[nH]c(=O)sc23)cc1 (some centres unmarked) [Example 3] | – | 1600 pM
